{"source": "the NIST ThermoML archive (doi:10.1021/je901020a)", "key": {"[1]": {"details": "101 kPa, Liquid; for speed of sound: Pulse-echo method"}, "[2]": {"assay": "refractive index (Na D-line) (dimensionless)", "details": "101.33 kPa, Liquid, Standard Abbe refractometry"}}, "note": "“And” between values parts separate entries of the source, which are not always exact repeats. Equal entries are not always repeated. Numbers after ± are expanded uncertainties.", "data": [{"smiles": "Cc1ccc(C)cc1", "note": "[1,4-dimethylbenzene]", "values": [{"measurement": "mass density", "setting": "[1]; 298.15 K", "value": "856.6 ± 0.5", "unit": "kg/m3"}, {"measurement": "speed of sound", "setting": "[1]; 298.15 K", "value": "1310 ± 2", "unit": "m/s"}, {"measurement": "mass density", "setting": "[1]; 313.15 K", "value": "843.5 ± 0.5", "unit": "kg/m3"}, {"measurement": "speed of sound", "setting": "[1]; 313.15 K", "value": "1248 ± 2", "unit": "m/s"}, {"measurement": "refractive index", "setting": "[2]; 298.15 K", "value": "1.49312 ± 0.001"}, {"measurement": "refractive index", "setting": "[2]; 313.15 K", "value": "1.48444 ± 0.001"}]}, {"smiles": "C1CCCCC1", "note": "[cyclohexane]", "values": [{"measurement": "mass density", "setting": "[1]; 298.15 K", "value": "773.9 ± 0.5", "unit": "kg/m3"}, {"measurement": "speed of sound", "setting": "[1]; 298.15 K", "value": "1255 ± 2", "unit": "m/s"}, {"measurement": "mass density", "setting": "[1]; 313.15 K", "value": "759.6 ± 0.5 kg/m3 and 759.59 ± 0.5 kg/m3"}, {"measurement": "speed of sound", "setting": "[1]; 313.15 K", "value": "1182 ± 2", "unit": "m/s"}, {"measurement": "refractive index", "setting": "[2]; 298.15 K", "value": "1.4236 ± 0.00064"}, {"measurement": "refractive index", "setting": "[2]; 313.15 K", "value": "1.41516 ± 0.00064"}]}, {"smiles": "C1CCCCCCC1", "note": "[cyclooctane]", "values": [{"measurement": "mass density", "setting": "[1]; 298.15 K", "value": "831.5 ± 0.5", "unit": "kg/m3"}, {"measurement": "speed of sound", "setting": "[1]; 298.15 K", "value": "1391 ± 2", "unit": "m/s"}, {"measurement": "mass density", "setting": "[1]; 313.15 K", "value": "819.2 ± 0.5", "unit": "kg/m3"}, {"measurement": "speed of sound", "setting": "[1]; 313.15 K", "value": "1326 ± 2 m/s and 1325 ± 2 m/s"}, {"measurement": "refractive index", "setting": "[2]; 298.15 K", "value": "1.45598 ± 0.00061"}, {"measurement": "refractive index", "setting": "[2]; 313.15 K", "value": "1.44877 ± 0.00061"}]}, {"smiles": "C1CCCC1", "note": "[cyclopentane]", "values": [{"measurement": "mass density", "setting": "[1]; 298.15 K", "value": "740 ± 0.6", "unit": "kg/m3"}, {"measurement": "speed of sound", "setting": "[1]; 298.15 K", "value": "1204 ± 2", "unit": "m/s"}, {"measurement": "mass density", "setting": "[1]; 313.15 K", "value": "725 ± 0.7", "unit": "kg/m3"}, {"measurement": "speed of sound", "setting": "[1]; 313.15 K", "value": "1130 ± 2", "unit": "m/s"}, {"measurement": "refractive index", "setting": "[2]; 298.15 K", "value": "1.40292 ± 0.001"}, {"measurement": "refractive index", "setting": "[2]; 313.15 K", "value": "1.39456 ± 0.001"}]}, {"smiles": "CC1CCCCC1", "note": "[methylcyclohexane]", "values": [{"measurement": "mass density", "setting": "[1]; 298.15 K", "value": "765 ± 0.6 kg/m3 and 765.1 ± 0.6 kg/m3"}, {"measurement": "speed of sound", "setting": "[1]; 298.15 K", "value": "1215 ± 2", "unit": "m/s"}, {"measurement": "mass density", "setting": "[1]; 313.15 K", "value": "751.9 ± 0.6", "unit": "kg/m3"}, {"measurement": "speed of sound", "setting": "[1]; 313.15 K", "value": "1150 ± 2", "unit": "m/s"}, {"measurement": "refractive index", "setting": "[2]; 298.15 K", "value": "1.42062 ± 0.00064"}, {"measurement": "refractive index", "setting": "[2]; 313.15 K", "value": "1.41274 ± 0.00064 and 1.41274 ± 0.001"}]}]}
